Literature values as cited in patent publication US20110236508A1, “L-ARGININE-BASED FORMULATION FOR ORAL ABSORPTION” (priority 2008, published 2011).

Key:
[1] = test system: coronary endothelial dysfunction; settings: oral 3 g TID, after 6 months
[2] = test system: brachial artery
[3] = test system: mice deficient in Apo-E; settings: 6% L-arginine drinking solution
[4] = test system: peripheral arterial disease; settings: 8 g, bid, 14 days
[5] = test system: coronary artery disease; settings: 9 g/day orally for 6 months
[6] = test system: anginal patients; settings: 6 g/day
[7] = 24 hypercholesterolemic patients, 14 g/day for 12 weeks

SMILES: N=C(N)NCCC[C@H](N)C(=O)O [L-arginine]
- patients' symptoms scores ([1]; compared with placebo): improvement
- plasma endothelin concentrations ([1]; compared with placebo): decrease
- coronary blood flow in response to acetylcholine ([1]; P<0.05 versus placebo): 149±20%
- flow-mediated dilation (FMD) of the brachial artery ([2]; 8 g p.o. two times daily for 14 days, 12 healthy old subjects, p<0.0001): 5.7+/−1.2%
- plasma levels of L-arginine ([2]; after 8 g p.o. two times daily for 14 days, versus 57.4+/−5.0): 114.9 ± 11.6 µmol/L
- ADMA plasma concentrations ([2]; during treatment, 8 g p.o. two times daily for 14 days): remained unchanged
- increase in treadmill exercise performance [3]: 61%
- improvement in walking distance [4]: 150%
- decrease in anginal episodes [5]: 70%
- improvement of acetylcholine-induced coronary vascular relaxation [5]: 149%
- exercise tolerance [6]: improved
- time to 1 mm ST-segment depression during exercise-stress testing [6]: increased
- adverse effects [7]: no reports of any adverse effects
